Results from PubChem BioAssay (NCI).
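GI50 = concentration required for 50% inhibition of growth. TGI: total growth inhibition.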

How the values were obtained:
Assay in all cases: DTP human tumour cell line panel, 384-well format
UO-31 renal = test system: UO-31 renal
SK-OV-3 ovarian = test system: SK-OV-3 ovarian
MOLT-4 leukemia = test system: MOLT-4 leukemia
NCI-H226 lung = test system: NCI-H226 lung
EKVX NSCLC = test system: EKVX NSCLC
786-0 renal = test system: 786-0 renal
T-47D breast = test system: T-47D breast
UACC-62 melanoma = test system: UACC-62 melanoma
DU-145 prostate = test system: DU-145 prostate
K-562 leukemia = test system: K-562 leukemia
SK-MEL-5 melanoma = test system: SK-MEL-5 melanoma
SNB-19 CNS = test system: SNB-19 CNS
U251 glioblastoma = test system: U251 glioblastoma
COLO 205 colon = test system: COLO 205 colon
SF-268 CNS = test system: SF-268 CNS
SK-MEL-28 melanoma = test system: SK-MEL-28 melanoma
LOX IMVI melanoma = test system: LOX IMVI melanoma
NCI/ADR-RES ovarian = test system: NCI/ADR-RES ovarian
NCI-H522 lung = test system: NCI-H522 lung
OVCAR-4 ovarian = test system: OVCAR-4 ovarian
A549 NSCLC = test system: A549 NSCLC
NCI-H460 NSCLC = test system: NCI-H460 NSCLC
MCF7 breast = test system: MCF7 breast
MDA-MB-435 melanoma = test system: MDA-MB-435 melanoma
BT-549 breast = test system: BT-549 breast
OVCAR-8 ovarian = test system: OVCAR-8 ovarian
SF-539 CNS = test system: SF-539 CNS
PC-3 prostate = test system: PC-3 prostate
HCT-116 colon = test system: HCT-116 colon
HOP-62 NSCLC = test system: HOP-62 NSCLC
MDA-MB-231 breast = test system: MDA-MB-231 breast
ACHN renal = test system: ACHN renal
IGROV1 ovarian = test system: IGROV1 ovarian
SNB-75 CNS = test system: SNB-75 CNS
HS 578T breast = test system: HS 578T breast
SF-295 CNS = test system: SF-295 CNS
UACC-257 melanoma = test system: UACC-257 melanoma
CAKI-1 renal = test system: CAKI-1 renal
MALME-3M melanoma = test system: MALME-3M melanoma
HCC-2998 colon = test system: HCC-2998 colon
HL-60(TB) leukemia = test system: HL-60(TB) leukemia
KM12 colon = test system: KM12 colon
RPMI-8226 leukemia = test system: RPMI-8226 leukemia
CCRF-CEM leukemia = test system: CCRF-CEM leukemia
HOP-92 NSCLC = test system: HOP-92 NSCLC
SW-620 colon = test system: SW-620 colon
NCI-H322M lung = test system: NCI-H322M lung
SR leukemia = test system: SR leukemia
NCI-H23 lung = test system: NCI-H23 lung
HT29 colon = test system: HT29 colon
M14 melanoma = test system: M14 melanoma
TK-10 renal = test system: TK-10 renal
HCT-15 colon = test system: HCT-15 colon
RXF 393 renal = test system: RXF 393 renal
OVCAR-3 ovarian = test system: OVCAR-3 ovarian
MDA-MB-468 breast = test system: MDA-MB-468 breast
A498 renal = test system: A498 renal
SN12C renal = test system: SN12C renal

For `CCN(Cc1cc(Nc2nc(C)cn3c(-c4cn[nH]c4)cnc23)sn1)C(C)(C)CO`, the GI50 (UO-31 renal) was 64.1 nM, the TGI (UO-31 renal) was 1700 nM and the GI50 (SK-OV-3 ovarian) was under 10 nM. The TGI (SK-OV-3 ovarian) was 41.1 nM, the GI50 (MOLT-4 leukemia) was under 10 nM and the TGI (MOLT-4 leukemia) was under 10 nM. It also gave a GI50 (NCI-H226 lung) of under 10 nM, a TGI (NCI-H226 lung) of 152 nM and a GI50 (EKVX NSCLC) of 32.1 nM. For the same compound, the TGI (EKVX NSCLC) was 1500 nM, the GI50 ([…]-0 renal) was 45.7 nM and the TGI (786-0 renal) was 370 nM. It also gave a GI50 (T-47D breast) of 1050 nM, a TGI (T-47D breast) of 11400 nM and a GI50 (UACC-62 melanoma) of 18.7 nM. For the same compound, the TGI (UACC-62 melanoma) was 1270 nM, the GI50 (DU-145 prostate) was 21.3 nM and the TGI (DU-145 prostate) was 1270 nM. For the same compound, the GI50 (K-562 leukemia) was under 10 nM, the TGI (K-562 leukemia) was under 10 nM and the GI50 (SK-MEL-5 melanoma) was 118 nM. For the same compound, the TGI (SK-MEL-5 melanoma) was 537 nM, the GI50 (SNB-19 CNS) was 53.4 nM and the TGI (SNB-19 CNS) was 1070 nM. It also gave a GI50 (U251 glioblastoma) of 42.5 nM, a TGI (U251 glioblastoma) of 1180 nM and a GI50 (COLO 205 colon) of under 10 nM. It also gave a TGI (COLO 205 colon) of 100 nM, a GI50 (SF-268 CNS) of 14.8 nM and a TGI (SF-268 CNS) of 170 nM. It also gave a GI50 (SK-MEL-28 melanoma) of 169 nM, a TGI (SK-MEL-28 melanoma) of 9720 nM and a GI50 (LOX IMVI melanoma) of 27.6 nM. The TGI (LOX IMVI melanoma) was 134 nM, the GI50 (NCI/ADR-RES ovarian) was 534 nM and the TGI (NCI/ADR-RES ovarian) was 4080 nM. It also gave a GI50 (NCI-H522 lung) of under 10 nM, a TGI (NCI-H522 lung) of 64.6 nM and a GI50 (OVCAR-4 ovarian) of 114 nM. The TGI (OVCAR-4 ovarian) was 357 nM, the GI50 (A549 NSCLC) was 42.3 nM and the TGI (A549 NSCLC) was 1450 nM. For the same compound, the GI50 (NCI-H460 NSCLC) was 26.1 nM, the TGI (NCI-H460 NSCLC) was 1130 nM and the GI50 (MCF7 breast) was 139 nM. For the same compound, the TGI (MCF7 breast) was 1580 nM, the GI50 (MDA-MB-435 melanoma) was 71.2 nM and the TGI (MDA-MB-435 melanoma) was 242 nM. It also gave a GI50 (BT-549 breast) of 11.6 nM, a TGI (BT-549 breast) of 50.4 nM and a GI50 (OVCAR-8 ovarian) of 21.3 nM. It also gave a TGI (OVCAR-8 ovarian) of 188 nM, a GI50 (SF-539 CNS) of 12 nM and a TGI (SF-539 CNS) of 57.2 nM. For the same compound, the GI50 (PC-3 prostate) was 21 nM, the TGI (PC-3 prostate) was 2000 nM and the GI50 (HCT-116 colon) was under 10 nM. The TGI (HCT-116 colon) was 1400 nM, the GI50 (HOP-62 NSCLC) was 21 nM and the TGI (HOP-62 NSCLC) was 178 nM. It also gave a GI50 (MDA-MB-231 breast) of 30 nM, a TGI (MDA-MB-231 breast) of 830 nM and a GI50 (ACHN renal) of 33.4 nM. For the same compound, the TGI (ACHN renal) was 10600 nM, the GI50 (IGROV1 ovarian) was 15.5 nM and the TGI (IGROV1 ovarian) was 372 nM. For the same compound, the GI50 (SNB-75 CNS) was 10 nM, the TGI (SNB-75 CNS) was 36.9 nM and the GI50 (HS 578T breast) was 15.6 nM. For the same compound, the TGI (HS 578T breast) was 39 nM, the GI50 (SF-295 CNS) was 102 nM and the TGI (SF-295 CNS) was 319 nM. The GI50 (UACC-257 melanoma) was 1070 nM, the TGI (UACC-257 melanoma) was 2310 nM and the GI50 (CAKI-1 renal) was under 10 nM. For the same compound, the TGI (CAKI-1 renal) was 42.1 nM, the GI50 (MALME-3M melanoma) was 26.6 nM and the TGI (MALME-3M melanoma) was 1130 nM. The GI50 (HCC-2998 colon) was 99.9 nM, the TGI (HCC-2998 colon) was 362 nM and the GI50 (HL-60(TB) leukemia) was under 10 nM. The TGI (HL-60(TB) leukemia) was under 10 nM, the GI50 (KM12 colon) was 15.4 nM and the TGI (KM12 colon) was 1040 nM. It also gave a GI50 (RPMI-8226 leukemia) of 29.1 nM, a TGI (RPMI-8226 leukemia) of 123 nM and a GI50 (CCRF-CEM leukemia) of under 10 nM. For the same compound, the TGI (CCRF-CEM leukemia) was under 10 nM, the GI50 (HOP-92 NSCLC) was 32.3 nM and the TGI (HOP-92 NSCLC) was 178 nM. The GI50 (SW-620 colon) was 16.3 nM, the TGI (SW-620 colon) was 1360 nM and the GI50 (NCI-H322M lung) was 69.2 nM. It also gave a TGI (NCI-H322M lung) of 1660 nM, a GI50 (SR leukemia) of under 10 nM and a TGI (SR leukemia) of under 10 nM. For the same compound, the GI50 (NCI-H23 lung) was 40.9 nM, the TGI (NCI-H23 lung) was 274 nM and the GI50 (HT29 colon) was 74.1 nM. For the same compound, the TGI (HT29 colon) was 490 nM, the GI50 (M14 melanoma) was under 10 nM and the TGI (M14 melanoma) was 142 nM. For the same compound, the GI50 (TK-10 renal) was 72.5 nM, the TGI (TK-10 renal) was 378 nM and the GI50 (HCT-15 colon) was 23.2 nM. The TGI (HCT-15 colon) was 1560 nM, the GI50 (RXF 393 renal) was under 10 nM and the TGI (RXF 393 renal) was 133 nM. The GI50 (OVCAR-3 ovarian) was 16.3 nM, the TGI (OVCAR-3 ovarian) was 204 nM and the GI50 (MDA-MB-468 breast) was under 10 nM. The TGI (MDA-MB-468 breast) was under 10 nM, the GI50 (A498 renal) was 13.2 nM and the TGI (A498 renal) was 299 nM. For the same compound, the GI50 (SN12C renal) was 13.7 nM and the TGI (SN12C renal) was 61.3 nM.
